Measured values taken from patent US20120010115A1, “PRESERVATIVE SYSTEM AND COMPOSITION BASED ON GLYCINATE AND DIHYDROXYPROPYL QUATERNARY AMMONIUM SALT COMBINATION” (CONOPCO, INC., D/B/A UNILEVER, priority 2010, published 2012).

Test system: Pseudomonas aeruginosa ATCC 9027
Assay: Challenge Test for the Evaluation of Preservative Capacity of Liquid Detergent and Personal Products
Type: cell-based
Conditions: aqueous formula, each active 5%, pH 7.6, inoculum 1.06E+07 (Log 7)
Experimental: Experiments were conducted to evaluate antimicrobial activity against Pseudomonas aeruginosa of aqueous formulas containing 2,3-dihydroxypropyl trimethyl ammonium chloride (Glyceryl Quat), sodium cocoyl glycinate and combinations of these two materials. Samples were prepared at room temperature by mixing together sodium cocoyl glycinate and/or Glyceryl Quat and water. The pH was adjusted by addition of aqueous hydrochloric acid to reach a 7.6 value. Amounts of each of the active components was 5%. Test Method: Challenge Test for the Evaluation of Preservative Capacity of Liquid Detergent and Personal Products Test Microorganism: Pseudomonas aeruginosa ATCC 9027 obtained from American Type Culture Collection, Manassas, Va. 20108. Procedure: 20 grams of product were inoculated with 0.2 ml of the microorganism at a level of 1.06E+07 or Log 7. A single inoculation was performed. At 2 day, 7 day, 14 day and 21 day time points after inoculation a 1 gram sample was aseptically removed into a neutralizing fluid (TAT Broth) and plated using Letheen Agar. The plates were incubated at 30° C. for 7 days. At the end of the incubation time the plates were removed and examined for microbial growth. Calculation of Log Reduction: The microorganisms recovered were converted into Log10 and compared to initial inoculum count which then determined the Log Reduction. Logarithmic functions are the inverse of exponential functions. Log reduction was determined by the initial inoculum count minus the counts at each sampling time point.

Row | Molecule | Log Reduction Value (2 day after inoculation) | Log Reduction Value (7 day after inoculation) | Log Reduction Value (14 day after inoculation) | Log Reduction Value (21 day after inoculation)
1 | C[N+](C)(C)CC(O)CO.[Cl-] (centres unmarked) [Glyceryl Quat, 2,3-dihydroxypropyl trimethyl ammonium chloride] | 2.1 | 1.5 | 2.8 | 3.4
2 | sodium cocoyl glycinate | 1.1 | 1.1 | 0.8 | 0.2
